Data set [1] has as its system PBMC. Description: Cytotoxicity against human PBMC cells assessed as cell viability by MTT assay. Format: cell-based.
The nature of data set [2]: Induction of cell differentiation in human HL60 cells by NBT/MTT assay. Format: functional, cell-based. As to conditions: HL-60. On the technique in general: Formazan colour is commonly taken as a measure of viable cells.
For data set [3], the system named is HL-60. Description: Induction of cell differentiation in human HL60 cells assessed as condensation of nuclear chromatin after 3 days at 10 uM by leishmans staining based microscopic analysis. In kind it is functional.
The test system of data set [4] is HL-60. Description: Induction of cell differentiation in human HL60 assessed as reduction in cell number after 3 days at 10 uM by leishmans staining based microscopic analysis. In kind it is functional.
Data set [5] has as its system HL-60. Description: Induction of cell differentiation in human HL60 cells assessed as increase in differentiation index at 10 uM measured after 5 days by NBT/MTT assay. Format: functional, cell-based.
Data set [6] concerns HL-60. Description: Induction of cell differentiation in human HL60 cells assessed as increase in differentiation index at 10 uM measured after 3 days by NBT/MTT assay. Format: functional, cell-based.
Data set [7] relates to HL-60. Description: Induction of cell differentiation in human HL60 cells assessed as irregularity of nuclear and cytoplasmic shape after 3 days at 10 uM by leishmans staining based microscopic analysis. Format: functional.
The subject of data set [8] is HL-60. Description: Induction of cell differentiation in human HL60 cells at 0.1 to 10 uM measured after 5 days by NBT/MTT assay. In kind it is functional, cell-based.
Data set [9] has as its system HL-60. Description: Induction of cell differentiation in human HL60 cells at 0.1 to 10 uM measured after 3 days by NBT/MTT assay. Format: functional, cell-based.
For data set [10], the system named is HL-60. The data set is described as follows: Induction of cell differentiation in human HL60 cells at 10 uM co-administered with DAF measured after 3 days by NBT/MTT assay. Format: functional, cell-based.
The test system of data set [11] is HL-60. Description: Induction of cell differentiation in human HL60 cells at 10 uM co-administered with MDA measured after 3 days by NBT/MTT assay. Format: functional, cell-based.
Data set [12] concerns HL-60. Description: Induction of cell differentiation in human HL60 at 10 uM after 3 days by leishmans staining based microscopic analysis. Format: functional.

The source made the active and inactive calls. No cut-off for these calls is given here.

A word on the IC50: it is the concentration needed to halve the response being measured. As to `Nc1ccc(Cc2ccc(NC(=O)Nc3cc(N4CCCCC4)nc(N)[n+]3[O-])cc2)cc1`, the Activity result in data set [1] is “Toxic”. Moreover, the half-inhibitory concentration (IC50) in data set [2] came to 3.02 µM. The outcome in [3], in data set [4], in [5], in [6] and in data set [7] was Active.
Consider `CC1=C(/C=C/C(C)=C/C=C/C(C)=C/C(=O)O)C(C)(C)CCC1`, for which the result in data set [8] and in data set [9] was Active.
`Nc1cc(N2CCCCC2)nc(N)[n+]1[O-]` [MINOXIDIL]: the result in data set [10], in [11] and in data set [12] was inactive. Also, the half-maximal inhibitory concentration (IC50) in [2] was over 10 µM.
As for `Nc1nc(N2CCCCC2)cc(NC(=O)NC(c2ccccc2)c2ccccc2)[n+]1[O-]`, the Activity result in data set [1] is “Toxic”. Also, the 50% inhibitory concentration (IC50) in data set [2] was 3.05 µM. The result in data set [5] and in [6] was Active.
Turning to `Nc1ccc2c(c1)Cc1cc(NC(=O)Nc3cc(N4CCCCC4)nc(N)[n+]3[O-])ccc1-2`, in data set [1], the Activity entry is “Toxic”. The compound further gave an IC50 in data set [2] of 3.04 µM. In addition, the result in data set [3], in data set [4], in [5], in [6] and in [7] was Active.
Take `NCCCCCCNC(=O)Nc1cc(N2CCCCC2)nc(N)[n+]1[O-].O=C(O)C(F)(F)F`: the Activity result in data set [1] is recorded as “Toxic”. For the same compound, the IC50 in data set [2] is 3.3 µM. In addition, the outcome in data set [3], in data set [4], in data set [9] and in data set [7] was Active. The result in data set [8] was inactive.
Consider `CCCCNC(=O)Nc1cc(N2CCCCC2)nc(N)[n+]1[O-]`, for which the IC50 in data set [2] is over 10 µM.
Still for that read-out and setting: to `NCCCCNC(=O)Nc1cc(N2CCCCC2)nc(N)[n+]1[O-]` belongs over 10 µM.
Regarding `Nc1ccc2c(c1)Cc1cc(N)ccc1-2`, in data set [6], the result was inactive.
In turn, `Nc1nc(N2CCCCC2)cc(NC(=O)NCc2ccccc2)[n+]1[O-]` yielded an IC50 in [2] of over 10 µM.
Same read-out and setting: then `N#CCCNC(=O)Nc1cc(N2CCCCC2)nc(N)[n+]1[O-]`, with over 10 µM.
Turning to `NCCCNCCCCNCCCNC(=O)Nc1cc(N2CCCCC2)nc(N)[n+]1[O-].O=C(O)C(F)(F)F.O=C(O)C(F)(F)F.O=C(O)C(F)(F)F`, in [1], the Activity result is “Toxic”. The compound also yielded a 50% inhibitory concentration (IC50) in [2] of 3.02 µM. Besides, the outcome in data set [5] and in data set [6] was Active.
As to `CCCCCCCCCCCCCC(=O)O[C@@H]1[C@@H](C)[C@@]2(O)[C@@H](C=C(CO)C[C@]3(O)C(=O)C(C)=C[C@@H]23)[C@@H]2C(C)(C)[C@]12OC(C)=O`, the outcome in [12] was inactive.
On to `COc1ccc(C(NC(=O)Nc2cc(N3CCCCC3)nc(N)[n+]2[O-])c2ccc(OC)cc2)cc1`, for which the IC50 in data set [2] is over 10 µM.
Consider `Nc1ccc(Cc2ccc(N)cc2)cc1`, for which the result in data set [12] and in data set [6] was inactive.

Values taken from ChEMBL document CHEMBL3769400, “Synthesis of minoxidil conjugates and their evaluation as HL-60 differentiation agents” (Bioorg Med Chem Lett, 2016).
